Experimental data: patent US11160813B2, “Combination therapy for nonalcoholic steatohepatitis (NASH) and liver fibrosis” (Modunex Bio Corp., priority 2016, dated 2021)
“Also recorded” adds a separate entry of the source. Read-outs that look alike come from different tables or passages of the source.

What was measured:
mouse model of NASH = mouse model of NASH and fibrosis induced by streptozocin and high fat diet; assay type: in vivo, C59BL/6J mice; conditions: for NAS score: alone or in combination; for liver enzyme AST / liver enzyme ALP: OCA
Experimental: We have utilized a well validated mice model in which the NASH and fibrosis was induced by sequential induction of diabetes mellitus and a high fat diet (14). On day 2, C59BL/6J mice were injected with streptozocin, then treated with high fat diet from week 4 until week 9. The intervention treatment started from week 5 until week 9. On week 9, these mice were euthanized.
NAS scores were determined according to the consensus by Nonalcoholic Steatohepatitis Clinical Research Network (13)
Fibrosis scores were determined according to the consensus by Nonalcoholic Steatohepatitis Clinical Research Network (13).

[1] = cited from earlier work
[2] = cited from earlier work; remark: listed apart in the source
[3] = cited from earlier work; for pruritus: placebo 38%
[4] = cited from earlier work; remark: listed apart in the source
[5] = recent studies; cited from earlier work
[6] = HIV patients with HCV infection; cited from earlier work
CCR5 = conditions: animal model; cited from earlier work
[7] = FIG. 7B, MK-0812, alone or together

CO[C@@H]1COCC[C@@H]1N[C@@H]1CC[C@@](C(=O)N2CCc3ncc(C(F)(F)F)cc3C2)(C(C)C)C1 [MK-0812]
NAS score (mouse model of NASH; FIG. 1B, OCA and MK-0812 (10 mg twice daily)): modest reduction of NAS scores; also recorded: little effect
fibrosis evidenced by staining of collagen (liver histology) (mouse model of NASH; FIG. 2B, OCA and MK-0812): reduction of fibrosis
results in the NASH model when a CCR2 antagonist was used instead of MVC (mouse model of NASH; FIG. 3B to 7B): Comparable results
fibrosis score (mouse model of NASH; FIG. 3B, OCA and MK-0812, combination with half dose OCA and MK-0812 10 mg twice daily): reduction of fibrosis score
liver inflammation (mouse model of NASH; FIG. 4B, OCA and MK-0812): reduction of liver inflammation
hepatocyte ballooning score (mouse model of NASH; FIG. 5B, OCA and MK-0812): reduction of hepatocyte ballooning score
steatosis (mouse model of NASH; FIG. 6B, full dose OCA, MK-0812 alone): no apparent effect on steatosis
liver enzyme AST (mouse model of NASH; [7]): not observed

CC[C@H]1[C@@H](O)[C@@H]2[C@H](CC[C@]3(C)[C@@H]([C@H](C)CCC(=O)O)CC[C@@H]23)[C@@]2(C)CC[C@@H](O)C[C@@H]12 [OCA, 6 α-ethyl-chemodeoxycholic acid]
liver enzyme AST (mouse model of NASH; FIG. 7A, MVC, alone or together): elevation in AST and ALP liver enzymes; also recorded: elevation of the liver enzyme AST
liver enzyme AST (mouse model of NASH; [7]): elevation of the liver enzyme AST
liver enzyme ALP (mouse model of NASH; FIG. 8A, MVC, alone or together): elevation in AST and ALP liver enzymes; also recorded: elevation of the liver enzyme ALP
liver enzyme ALP (mouse model of NASH; FIG. 8B, MK-0812): elevation of the liver enzyme ALP
exposure-adjusted incidence for all serious and otherwise clinically significant liver-related adverse reactions and isolated elevations in liver biochemical test ([1]; 10 mg group, placebo 2.4): 5.2 per 100 patient exposure years (PEY)
exposure-adjusted incidence for all serious and otherwise clinically significant liver-related adverse reactions and isolated elevations in liver biochemical test ([1]; 25 mg group): 19.8%
exposure-adjusted incidence for all serious and otherwise clinically significant liver-related adverse reactions and isolated elevations in liver biochemical test ([1]; 50 mg group): 54.5%
bile duct histology ([2]; 26-week oral, rats): bile duct hyperplasia
clinical chemistry parameters ([2]; 26-week oral, rats): increases in ALT, AST and ALP
liver weight ([2]; 26-week oral, rats): increased liver weight
safety margin relative to recommended human dose ([2]; rat, in vivo): 2.3 fold
pruritus ([3]; 10 mg once daily): 56%
HDL ([3]; dose related): dose related reduction in HDL; also recorded: reduction of HDL
severe pruritus ([3]; patients receiving OCA): 19-23%
frequency of pruritus ([3]; reported frequency): up to 80%
pruritus ([3]; titration regimen): 70%
ALT levels ([4]; 9-month oral, dogs): elevated ALT levels
clinical signs of toxicity that could be associated with liver function ([4]; dog, in vivo, po): yellow discoloration of skin, mucous membrane, and eyes

CCCCOCCOc1ccc(-c2ccc3c(c2)/C=C(/C(=O)Nc2ccc([S@@+]([O-])Cc4cncn4CCC)cc2)CCCN3CC(C)C)cc1 [cenicriviroc]
effect on NASH [5]: marginal effect on NASH
effect on fibrosis [5]: relatively more significant effect on fibrosis

maraviroc [MVC]
NAS score (mouse model of NASH; FIG. 1A, maraviroc 45 mg/kg once daily orally, OCA 30 mg/kg once daily, 4 wks): modest reduction of NAS scores
NAS score (mouse model of NASH; FIG. 1A, maraviroc 45 mg/kg once daily orally, OCA 30 mg/kg once daily, 4 wks, listed as maravoric): limited effect on the NAS score
fibrosis evidenced by staining of collagen (liver histology) (mouse model of NASH; FIG. 2A, maraviroc 45 mg/kg, OCA 30 mg/kg once daily, 4 wks): reduction of fibrosis
fibrosis evidenced by staining of collagen (liver histology) (mouse model of NASH; FIG. 2A, maraviroc 45 mg/kg, OCA 30 mg/kg once daily, 4 wks, listed as maraviroc): effective in reducing fibrosis; also recorded: more effective than OCA in reducing fibrosis
fibrosis score (mouse model of NASH; FIG. 3A, maraviroc 45 mg/kg, OCA 30 mg/kg once daily, 4 wks): reduction of fibrosis score
liver inflammation (mouse model of NASH; FIG. 4A, maraviroc 45 mg/kg, OCA 30 mg/kg once daily, 4 wks): reduction of liver inflammation
hepatocyte ballooning score (mouse model of NASH; FIG. 5A, maraviroc 45 mg/kg, OCA 30 mg/kg once daily, 4 wks): reduction of the hepatocyte ballooning score
steatosis (mouse model of NASH; FIG. 6A, maraviroc 45 mg/kg, OCA 30 mg/kg once daily, 4 wks): marginal effect on steatosis
liver fibrosis [6]: Reducing liver fibrosis has been observed
NAS score and fibrosis (CCR5): effective in an animal model for reducing NAS score and fibrosis
